Laboratory results from patent US20060063784A1, “Method of using substituted pyrazolo [1,5-a] pyrimidines” (priority 2004, published 2006).
Read-outs that look alike come from different tables or passages of the source.

Legend:
[1] = test system: 80S14 (p21-deficient) cells; experiment: Cytotoxicity assay using isogenic cell lines: IC50 in 80S14 (p21-deficient) cells, SRB; format: cell-based, human
Method in brief: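 IC50 is the concentration halving proliferation relative to untreated controls, read from SRB absorbance (560 nm) after TCA fixation. Test agent dilutions (5 pM–50 μM or 170 pg/ml–10 μg/ml) were left on p21-deficient 80S14 cells (12,000/well, pre-incubated overnight) for 5 days at 37 °C.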

[2] = test system: LoVo Colon cell line; experiment: Cytotoxicity assay using LoVo colon cell line, SRB; format: cell-based; details: Homo sapiens, 96 h, 4 days incubation, SRB, read-out: Inhibition of LoVo
Method: Cytotoxicity Assay Using LoVo Colon Cell Line: • 1. LoVo Colon cell lines were cultured in RPMI 1640 medium (Gibco/Invitrogen Life Sciences) supplemented with 10% fetal bovine serum (FBS, Gibco) and 50 μg/ml entamicin (Gibco). Cells were maintained at 37° C. under 7% CO2. • 2. Cells were seeded in 96-well microtiter plates (Corning/Costar) in a volume of 0.15 ml of growth medium (4000 cells/well). Plates were incubated at 37° C. overnight (18-24 hours). • 3. Serial dilutions of the test agent were added to each well. Dilutions were prepared in growth medium. One of two dose ranges was used: 5 pM to 20 μM or 170 pg/ml to 10 μg/ml. Cells were incubated with the test compounds for 4 days at 37° C. • 4. Surviving cells were processed using the SRB asay, as described above.
5. The drug concentration that inhibits cell proliferation by 50% relative to untreated controls (IC50) was determined from cytotoxicity curves using the LSW Toolbox graphing application.

[3] = Homo sapiens, 120 h, 80S14 (p21-deficient) cells, 5 days, SRB, class symbols, read-out: IC50 for 80S14
[4] = Homo sapiens, 120 h, 80S14 p21-deficient cells, 5 days incubation, SRB, read-out: IC50 for 80SI4

Row | Molecule | IC50 [1, 3] | IC50 [1, 4] | further results
1 | O=C(c1cccs1)c1cnn2c(-c3cccc(-c4nnn(Cc5cccnc5)n4)c3)ccnc12 [Example 503, (7-{3-[2-(Pyridin-3-ylmethyl)-2H-tetraazol-5-yl]phenyl}pyrazolo[1,5-a]pyrimidin-3-yl)(thien-2-yl)methanone] | < 1 µM |  | IC50 ([2]; Cellular activity in LoVo cell): 0.1 to 1 µM
2 | O=C(c1cccs1)c1cnn2c(-c3cccc(-c4nnnn4CC4CCC4)c3)ccnc12 [Example 508, (7-{3-[1-(Cyclobutylmethyl)-1H-tetraazol-5-yl]phenyl}pyrazolo[1,5-a]pyrimidin-3-yl)(thien-2-yl)methanone] | 10 to 50 µM |  | IC50 ([2]; Cellular activity in LoVo cell): 1 to 20 µM
3 | COc1cc(-c2cnn3c(-c4cccc(NC(=O)CC(C)C)c4)ccnc23)cc(OC)c1OC [Example 467, 3-Methyl-N-{3-[3-(3,4,5-trimethoxyphenyl)pyrazolo[1,5-a]pyrimidin-7-yl]phenyl}butanamide] | < 1 µM |  | IC50 ([2]; Cellular activity in LoVo cell): < 0.1 µM
4 | CCCCNC(=O)Nc1cccc(-c2cc(C)nc3c(C(=O)c4cccs4)cnn23)c1 [Example 206, N-butyl-N′-{3-[5-methyl-3-(thien-2-ylcarbonyl)pyrazolo[1,5-a]pyrimidin-7-yl]phenyl}urea] |  | 1 to 10 µM | IC50 ([2]; LoVo colon cells): 0.1 to 1 µM
5 | CC(C)CC(=O)Nc1cc(-c2ccnc3c(C(=O)c4cccs4)cnn23)cs1 [Example 351, 3-Methyl-N-{4-[3-(thien-2-ylcarbonyl)pyrazolo[1,5-a]pyrimidin-7-yl]thien-2-yl}butanamide] | 1 to 10 µM |  | IC50 ([2]; Cellular activity in LoVo cell): 1 to 20 µM
6 | O=C(Nc1cc(-c2ccnc3c(C(=O)c4cccs4)cnn23)ccc1F)c1ccncc1 [Example 388, N-{2-Fluoro-5-[3-(thien-2-ylcarbonyl)pyrazolo[1,5-a]pyrimidin-7-yl]phenyl}isonicotinamide] | < 1 µM |  | IC50 ([2]; Cellular activity in LoVo cell): < 0.1 µM
7 | O=C(c1cccs1)c1cnn2c(-c3cccc(-c4ccc(CNCCN5CCOCC5)cc4)c3)ccnc12 [Example 461, [7-(4′-{[(2-Morpholin-4-ylethyl)amino]methyl}-1,1′-biphenyl-3-yl)pyrazolo[1,5-a]pyrimidin-3-yl](thien-2-yl)methanone] | 1 to 10 µM |  | IC50 ([2]; Cellular activity in LoVo cell): 0.1 to 1 µM
8 | CC(C)=CCOC(=O)Nc1cccc(-c2ccnc3c(C(=O)c4cccs4)cnn23)c1 [Example 177, 3-methylbut-2-enyl 3-[3-(thien-2-ylcarbonyl)pyrazolo[1,5-a]pyrimidin-7-yl]phenylcarbamate] |  | 1 to 10 µM | IC50 ([2]; LoVo colon cells): < 0.1 µM
9 | C=C(C)C(=O)Nc1cccc(-c2ccnc3c(C(=O)c4cccs4)cnn23)c1 [Example 44, 2-methyl-N-{3-[3-(thien-2-ylcarbonyl)pyrazolo[1,5-a]pyrimidin-7-yl]phenyl}acrylamide] |  |  | IC50 ([2]; LoVo colon cells): < 0.1 µM
10 | COc1cccc(C(=O)Nc2cccc(-c3ccnc4c(C(=O)c5cccs5)cnn34)c2)c1 [Example 97, 3-methoxy-N-{3-[3-(thien-2-ylcarbonyl)pyrazolo[1,5-a]pyrimidin-7-yl]phenyl}benzamide] |  | < 1 µM | 
11 | CCCCS(=O)(=O)Nc1cccc(-c2ccnc3c(C(=O)c4cccs4)cnn23)c1 [Example 29, N-{3-[3-(thien-2-ylcarbonyl)pyrazolo[1,5-a]pyrimidin-7-yl]phenyl}butane-1-sulfonamide] |  | 1 to 10 µM | 
12 | C#CCN(C(=O)C1CC1)c1cccc(-c2ccnc3c(C(=O)c4cccs4)cnn23)c1 [Example 259, N-2-Propynyl-N-[3-[3-(2-thienylcarbonyl)pyrazolo[1,5-a]pyrimidin-7-yl]phenyl}-cyclopropanecarboxamide] | 1 to 10 µM |  | 
13 | CC(C)C(C)OC(=O)Nc1cccc(-c2ccnc3c(C(=O)c4cccs4)cnn23)c1 (centres unmarked) [Example 191, 1,2-dimethylpropyl 3-[3-(thien-2-ylcarbonyl)pyrazolo[1,5-a]pyrimidin-7-yl]phenylcarbamate] |  | < 1 µM | 
14 | CC(C)NC(=O)Nc1cccc(-c2ccnc3c(C(=O)c4ccco4)cnn23)c1 [Example 298, N-{3-[3-(2-Furoyl)pyrazolo[1,5-a]pyrimidin-7-yl]phenyl}-N′-isopropylurea] | < 1 µM |  | 
15 | CC(C)COC(=O)NCC(=O)Nc1cccc(-c2ccnc3c(C(=O)c4cccs4)cnn23)c1 [Example 117, isobutyl 2-oxo-2-({3-[3-(thien-2-ylcarbonyl)pyrazolo[1,5-a]pyrimidin-7-yl]phenyl}amino)ethylcarbamate] |  | 1 to 10 µM | 
16 | O=C(c1cccs1)c1cnn2c(-c3cccc(F)c3)ccnc12 [Example 225, [7-(3-Fluorophenyl)pyrazolo[1,5-a]-pyrimidin-3-yl}-2-thienyl-methanone] | 10 to 50 µM |  | 
17 | tert-Butyl 4-[({3-[3-[3-(thien-2-ylcarbonyl)pyrazolo[1,5-a]pryimidin-7-yl]phenyl}amino)carbonyl]piperidine-1-carboxylate [Example 405] |  |  | IC50 ([1]; 80S14 (p21-deficient) cells, 5 days, SRB, class symbols, read-out: IC50 for 80S14): 1 to 10 µM
18 | C/C(=C\c1ccccc1)CNc1cccc(-c2ccnc3c(C(=O)c4cccs4)cnn23)c1 [Example 397, [7-(3-{[(2E)-2-Methyl-3-phenylprop-2-enyl]amino}phenyl)pyrazolo[1,5-a]pyrimidin-3-yl] (thien-2-yl)methanone] | 10 to 50 µM |  | 
19 | CC(C)OC(=O)Nc1cccc(-c2ccnc3c(C(=O)c4cccs4)cnn23)c1 [Example 15, isopropyl 3-[3-(thien-2-ylcarbonyl)pyrazolo[1,5-a]pyrimidin-7-yl]phenylcarbamate] |  |  | IC50 ([1]; Homo sapiens, 80S14, 120 h, read-out: IC50 for 80SI4 (uM)): < 1 µM
20 | C=CCC(C)OC(=O)Nc1cccc(-c2ccnc3c(C(=O)c4cccs4)cnn23)c1 (centres unmarked) [Example 189, 1-methylbut-3-enyl 3-[3-(thien-2-ylcarbonyl)pyrazolo[1,5-a]pyrimidin-7-yl]phenylcarbamate] |  | < 1 µM | 
21 | O=CNc1cccc(-c2ccnc3c(C(=O)c4cccs4)cnn23)c1 [Example 260, N-[3-[3-(2-Thienylcarbonyl)pyrazolo[1,5-a]pyrimidin-7-yl]phenyl}-formamide] |  |  | IC50 ([1]; Homo sapiens, 80S14, 120 h, read-out: IC50 for 80S14 (uM)): 1 to 10 µM
22 | C[C@H](N)C(=O)Nc1cccc(-c2ccnc3c(C(=O)c4cccs4)cnn23)c1 [Example 78, N-1-{3-[3-(thien-2-ylcarbonyl)pyrazolo[1,5-a]pyrimidin-7-yl]phenyl}-L-alaninamide] |  |  | IC50 ([1]; 80S14 p21-deficient cells, 5 days incubation, SRB, read-out: IC50 for 80SI4): 1 to 10 µM
23 | CNc1cccc(-c2ccnc3c(C(=O)c4ccccc4)cnn23)c1 [Example 231, [7-[3-(Methylamino)phenyl]pyrazolo[1,5-a]-pyrimidin-3-yl}phenyl-methanone] | 10 to 50 µM |  | 
24 | O=C(Nc1cccc(-c2ccnc3c(C(=O)c4cccs4)cnn23)c1)c1cnc[nH]1 [Example 415, N-{3-[3-(Thien-2-ylcarbonyl)pyrazolo[1,5-a]pyrimidin-7-yl]phenyl}-1H-imidazole-5-carboxamide] | < 1 µM |  | 
25 | O=C(Nc1cccc(-c2ccnc3c(C(=O)c4cccs4)cnn23)c1)c1ccc(Cl)c(Cl)c1 [Example 100, 3,4-dichloro-N-{3-[3-(thien-2-ylcarbonyl)pyrazolo[1,5-a]pyrimidin-7-yl]phenyl}benzamide] |  | 10 to 50 µM | 
26 | O=C(Nc1cccc(-c2ccnc3c(C(=O)c4cccs4)cnn23)c1)c1ccc(Br)cc1 [Example 90, 4-bromo-N-{3-[3-(thien-2-ylcarbonyl)pyrazolo[1,5-a]pyrimidin-7-yl]phenyl}benzamide] |  | 1 to 10 µM | 
27 | COc1ccc(OC)c(CC(=O)Nc2cccc(-c3ccnc4c(C(=O)c5cccs5)cnn34)c2)c1 [Example 110, 2-(2,5-dimethoxyphenyl)-N-{3-[3-(thien-2-ylcarbonyl)pyrazolo[1,5-a]pyrimidin-7-yl]phenyl}acetamide] |  | 1 to 10 µM | 
